Read-outs that look alike come from different tables or passages of the source. Bounds are passed on as bounds.

For data set [1] the following is noted: literature value; cited from earlier work.
The next data set relates to NHDF. As to the kind of experiment: Cytotoxicity MTS assay, 72 h. Type of data set: cell-based. The note with it: Homo sapiens, NHDF normal fibroblasts. The text has this:
(§1) The human colon carcinoma cell line HCT116 wild type (p53^+/+), human breast carcinoma cell line MCF-7 and glioblastoma cell line Hs683 were obtained from ATCC. The glioma cell line U-251 was purchased from Sigma Aldrich and the normal human fibroblast cell lines NHDF from PromoCell. The human colon cancer cell line HCT116 with a p53 deletion (p53^-/-) was kindly provided by Prof. M. Rusin from the Maria Sklodowska-Curie Memorial Cancer Centre and Institute of Oncology in Gliwice, Poland. Cells were grown as monolayer cultures in Dulbecco’s modified Eagle’s medium with an antibiotic gentamicin (200 μL/100 mL medium) in 75 cm^2 flasks (Nunc). DMEM for HCT116, MCF-7, U-251, Hs683 were supplemented with 12% heat-inactivated fetal bovine serum (Sigma) and for NHDF with 15% non-inactivated fetal bovine serum (Sigma). All the cell lines were cultured under standard conditions at 37°C in a humidified atmosphere at 5% CO2.
(§2) The cells were seeded in 96-well plates (Nunc) at a density of 5,000 cells/well (HCT116, MCF-7, U-251, Hs683) and 4,000 cells/well (NHDF) and incubated at 37°C for 24 h. The assay was performed following a 72 h incubation with varying concentrations of the compounds that were tested. Then, 20 μL of The CellTiter 96®AQueous One Solution-MTS (Promega) solution was added to each well (with 100 μL DMEM without phenol red) and incubated for 1 h at 37°C. The optical densities of the samples were analyzed at 490 nm using a multi-plate reader (Synergy 4, Bio Tek). Results were expressed as a percentage of the control and calculated as the inhibitory concentration (IC50) values using GraphPad Prism 5. The IC50 parameter was defined as the compound concentration that was necessary to reduce the proliferation of cells to 50% of the untreated control. Each individual compound was tested in triplicate in a single experiment with each experiment being repeated four to five times.
A general note: Tetrazolium assays rely on reduction of a dye to a coloured formazan, in cell work by metabolically active cells.

The nature of data set [2]: Protonation constants by pH-dependent UV-visible spectrophotometric titration. Type of data set: physicochemical. Conditions: MeOH/H2O 80/20 by weight, I = 0.1 M KCl, T = 25.0°C. The procedure: Spectrophotometric titrations were performed in order to probe the acid-based equilibria that were associated with each ligand and to determine the pH range over which the chelator was in its charge neutral form. This property is important in understanding the passage of a molecule through the cell membranes, as charged chelators have poor access. These studies were performed in an 80% (w/w) MeOH/H2O solvent mixture due to the low solubility of these compounds in pure water. The fully protonated forms of the ligands have four L^1-L^7 or five L^8-L^12 dissociable protons, respectively. […] An additional proton in L^8-L^12 derives from the additional pyridine, pyrimidine or pyrazine ring, respectively; however, not all of them could be determined under these experimental conditions. The protonation constants that were obtained are given in Table 1 and the species distribution diagram of the protonated species of the selected ligand is presented in Fig 3.
To determine the acid-base properties of the studied ligands, UV-visible spectrophotometric experiments as a function of p[H] were carried out in the pH range 2–11.
UV-Visible titrations were also carried out. The absorption spectra (200–800 nm) were recorded using a Jasco V630 spectrophotometer. The initial pH of 3.2 mL ligand samples was adjusted to be acidic or basic and the titration of the solution was then carried out by adding known volumes of NaOH or HCl, respectively. The spectrophotometric data were fitted using the HypSpec program. Distribution diagrams of the species were calculated using Hyperquad Simulation and Speciation (HySS) software.

The subject of the next data set is HCT116 p53^-/-. In words: Cytotoxicity MTS assay, 72 h. Conditions: for IC50: Homo sapiens, HCT-116, HCT116 p53^-/-, 72 h, MTS. Type of data set: cell-based, human.
Description: as §1, §2

The next data set deals with Hs683. In words: Cytotoxicity MTS assay, 72 h. Type of data set: cell-based, human. Conditions: for IC50: Homo sapiens, Hs 683, Hs683, 72 h, MTS.
Description: as §1, §2

A further data set relates to MCF-7. In words: Cytotoxicity MTS assay, 72 h. The note with it: for IC50: Homo sapiens, MCF7, MCF-7, 72 h, MTS. The data set is classed as cell-based, human.
Description: as §1, §2

The test system of another data set is U-251. In words: Cytotoxicity MTS assay, 72 h. Type of data set: cell-based, human. Conditions: for IC50: Homo sapiens, U-251, 72 h, MTS.
Description: as §1, §2

The subject of another data set is HCT116 p53^+/+. As to the kind of experiment: Cytotoxicity MTS assay, 72 h. The data set is classed as cell-based, human. Conditions: for IC50: Homo sapiens, HCT-116, HCT116 p53^+/+, 72 h, MTS.
Description: as §1, §2

Another data set has as its system MCF-7 cells. As to the kind of experiment: Western blot of cell cycle and cell death proteins. Type of data set: cell-based, human. Conditions: 24 h, L^9 at four-fold IC50. The procedure: (§3) The HCT116 (p53^+/+), U-251 and MCF-7 cells were seeded in 3 cm Petri dishes (Nunc) at a density of 0.5·10^6 cells/well and incubated overnight. […] Cells were harvested by trypsinization, washed with cold PBS and cell pellets were obtained by centrifugation at 2,000 rpm. Total cell lysates were obtained by dissolving the cell pellets in 150 μL of a RIPA buffer (Thermo Scientific) containing a Halt Protease Inhibitor Cocktail (Thermo Scientific) or Halt Phosphatase Inhibitor Cocktail (Thermo Scientific) along with 0.5 M EDTA and lysed for 20 min on ice on a rocking plate. The lysates were then sonicated, centrifuged at 10,000 rpm for 10 min at 4°C and the supernatants were collected for further analysis. The protein concentration was determined using a Micro BCA™ Protein Assay Kit (Thermo Scientific) according to the manufacturer’s instructions. Equal amounts of proteins (15 μg) were electrophoresed on SDS-Page gels and transferred onto a nitrocellulose membranes. The membranes were blocked in 5% non-fat milk prepared in PBS containing 0.1% Tween-20 (TPBS) for 1 h. After blocking, the membranes were incubated with specific primary antibodies: PARP, p53, p21^Waf1/Cip1, cdc2, cyclin E, cytochrome c, caspase-3,8,9 and GAPPH overnight at 4°C, then washed and incubated with horseradish peroxidase (HRP)-conjugated secondary antibodies for 1 h at room temperature. All the antibodies were purchased from Cell Signaling and were diluted 1:1000 in 5% milk in TPBS. Finally, the membranes were washed and incubated with a SuperSignal™ West Pico Chemiluminescent Substrate (Thermo Scientific). The chemiluminescence signals were captured using a ChemiDoc™ XRS+ System (BioRad). The experiments were performed at least three times.
(In western blotting, separated proteins are transferred to a membrane and probed.)

The test system of a further data set is HCT116 p53^+/+ cells. In words: Western blot of cell cycle and cell death proteins. Type of data set: cell-based, human. Conditions: 24 h, L^9 at four-fold IC50. As for the experimental part:
as §3

The subject of a further data set is U-251 cells. As to the kind of experiment: Western blot of cell cycle and cell death proteins. Type of data set: cell-based, human. The note with it: 24 h. As for the experimental part:
as §3

The next data set concerns cancer cell lines. As to the kind of experiment: Cytotoxicity MTS assay, whole panel of cancer cell lines. The data set is classed as cell-based. Conditions: Homo sapiens, Hs 683; all the cancer lines, Hs683 an exception.
Description: as §1
The cells were seeded in 96-well plates (Nunc) at a density of 5,000 cells/well (HCT116, MCF-7, U-251, Hs683) and 4,000 cells/well (NHDF) and incubated at 37°C for 24 h. […] The optical densities of the samples were analyzed at 490 nm using a multi-plate reader (Synergy 4, Bio Tek). Results were expressed as a percentage of the control and calculated as the inhibitory concentration (IC50) values using GraphPad Prism 5. […]

Turning to `NC(=S)NN=Cc1ncccc1N` [Triapine, 3-aminopyridine-2-carboxaldehyde thiosemicarbazone], in data set [1], the logK1 was 10.86, the logK2 is 3.79, the logβ1H was 10.86 (1)^[[45]^] and the logβ2H was 14.65 (1)^[[45]^]. Besides, the IC50 in the data set with NHDF is over 25000 nM. In data set [2], the logK1 was 10.64 and the logK2 was determined as 3.48. In addition, in data set [2] (error 1σ), the logβ1H was 10.64 (1) and the logβ2H is reported as 14.12 (1). In addition, in the data set on HCT116 p53^-/-, the “Therapeutic index (TI) NHDF vs. HCT116 p53^-/-” value was over 19 and the IC50 was 1340 ± 338 nM. In addition, in the data set on Hs683, the “Therapeutic index (TI) NHDF vs. Hs683” value is over 14 and the concentration for half-maximal inhibition (IC50) worked out at 1760 ± 292 nM. In addition, in the data set on MCF-7, the “Therapeutic index (TI) NHDF vs. MCF-7” value is listed as over 11 and the half-maximal inhibitory concentration (IC50) was 2330 ± 431 nM. Moreover, in the data set on U-251, the “Therapeutic index (TI) NHDF vs. U-251” value is reported as over 17 and the concentration for half-maximal inhibition (IC50) came to 1480 ± 558 nM. Moreover, in the data set with HCT116 p53^+/+, the “Therapeutic index (TI) NHDF vs. HCT116 p53^+/+” value is on record as over 22 and the IC50 is 1120 ± 277 nM. Besides, in the data set with MCF-7 cells, the cytochrome c result is reported as “release of cytochrome c”, the “expression of cdc2” value is listed as “much stronger” and the “expression of cyclin E” value was “overexpression”. Also, in the data set with HCT116 p53^+/+ cells, the cytochrome c entry is recorded as “release of cytochrome c” and the “expression of cyclin E” value was “overexpression”. In addition, the cytochrome c entry in the data set on U-251 cells (U-251) is recorded as “release of cytochrome c”. Moreover, the “expression of cyclin E” value in the data set on U-251 cells (U-251, L^9 at four-fold IC50) was “overexpression”. Further, in the data set on U-251 cells (glioma cell (U-251)), the PARP cleavage result is “PARP cleavage”.
`Nc1cccnc1C=NNC(=S)N1CCN(c2ccc(Cl)cc2)CC1` [L^3, N’-[(3-aminopyridin-2-yl)methylidene]-4-(4-chlorophenyl)piperazine-1-carbothiohydrazide] yielded a melting point of 206 to 207 °C. Also, the IC50 with NHDF is over 25000 nM. Besides, the half-inhibitory concentration (IC50) in the data set on cancer cell lines is 120 to 200 nM. In addition, the IC50 in the data set on HCT116 p53^-/- stood at 167 ± 18 nM. The IC50 in the data set with Hs683 was 1480 ± 335 nM. Also, the IC50 in the data set with MCF-7 stood at 204 ± 49 nM. Further, in the data set on U-251, the IC50 came out at 128 ± 12 nM. Moreover, the concentration for half-maximal inhibition (IC50) in the data set with HCT116 p53^+/+ came out at 120 ± 5 nM.

In general, IC50 refers to the point on the concentration scale where inhibition reaches its midpoint. For orientation: melting point means the temperature, or range, at which the solid turns liquid.

The record behind these values is publication PMC5898707, “Piperazinyl fragment improves anticancer activity of Triapine” (PLoS ONE, 2018).
